Experimental data taken from US10961196B2, “Compounds for use as an anti-bacterial or anti-fungal agent and as a zinc sensor” (UNIVERSITÄT KONSTANZ, priority 2016, dated 2021).
Values joined by “and” are separate entries in the source; they are usually repeats but may differ in a detail not shown here. Identical values can stand only once. Like-named read-outs stand apart in the source and are kept apart here.

Tests used:
S. aureus NCTC 8325 = assay: Minimum inhibitory concentration (MIC), 96-well plates, serial dilutions in LB medium; assay type: cell-based; details: Staphylococcus aureus
Excerpt: (§1) Example 12: Determination of the Minimum Inhibitory Concentration (MIC) with Non-Pathogenic E. coli and B. subtilis and/or Pathogenic Strains of S. aureus Including Three MRSA Strains (USA 300, Mu50 and DSM18827) as Well as the Pathogenic Fungus Candida albicans
(§2) Minimum inhibitory concentrations (MIC) for compounds 1 to 11 with non-pathogenic E. coli and B. subtilis and/or pathogenic strains of S. aureus including three MRSA strains (USA 300, Mu50 and DSM18827) as well as the pathogenic fungus Candida albicans were determined in 96-well plates with serial dilutions in LB medium.

B. subtilis = assay: as above; assay type: cell-based; details: Bacillus subtilis, read-out: Minimum inhibitory concentration (MIC)
Excerpt: as §1, §2

E. coli K12 = assay: as above; assay type: cell-based; details: Escherichia coli
Excerpt: as §1, §2

Candida albicans = assay: as above; assay type: cell-based; details: read-out: Minimum inhibitory concentration (MIC)
Excerpt: as §1, §2

[1] = test system: S. aureus DSM18827 (MRSA); assay: as above; assay type: cell-based; details: Staphylococcus aureus, DSM 11827 / DSM 18827 / MRSA, read-out: Minimum inhibitory concentration (MIC)
Excerpt: as §1, §2

S. aureus Mu50 (MRSA) [2] = assay: as above; assay type: cell-based; details: Staphylococcus aureus, read-out: Minimum inhibitory concentration (MIC)
Excerpt: as §1, §2

[3] = test system: human embryonic kidney cell line HEK-293; assay: Toxicological testing, viability by resazurin reduction after 24 h; assay type: cell-based; details: HEK-293, 0-100 μM tested
Description: Example 13: Toxicological Testing with Human Embryonic Kidney Cell Line HEK-293
Compounds 3, 5, and 10 were toxicologically tested with human embryonic kidney cell line HEK-293 at concentrations varying from 0 to 100 μM (cf. FIGS. 1 to 3). The viability was measured by resazurin reduction after 24 h.

[4] = test system: developing neurons (LUHMES d2-3); assay: Toxicological testing with developing neurons in the LUHMES d2-3 assay; assay type: cell-based; details: 0-100 μM tested
Description: Example 14: Toxicological Testing with Developing Neurons in the LUHMES d2-3 Assay
Compounds 3, 5, and 10 were toxicologically tested with developing neurons in the LUHMES d2-3 assay at concentrations varying from 0 to 100 μM (cf. FIGS. 4 to 6). […] In the case of compound 5 (cf. FIG. 5), general cytotoxicity (orange line) and inhibition of neurite outgrowth each started above 40 μM (green line). For compound 10 (cf. FIG. 6), general cytotoxicity (orange line) started at 80 μM and inhibition of neurite outgrowth started at 40 μM (green line).

S. aureus USA 300 (MRSA) = assay: Minimum inhibitory concentration (MIC), 96-well plates, serial dilutions in LB medium; assay type: cell-based; details: Staphylococcus aureus, read-out: Minimum inhibitory concentration (MIC)
Excerpt: as §1, §2
Example 21: Determination of the Minimum Inhibitory Concentration (MIC) for the Compounds Represented by the Formulas (14) and (16) with the Pathogenic USA 300 (MRSA) Strain of S. aureus
Minimum inhibitory concentrations (MIC) for the compounds represented by the Formulas (14) and (16) with the pathogenic MRSA strains of S. aureus USA 300 were determined in 96-well plates with serial dilutions in LB medium.

Neisseria gonorrhoeae = assay: Growth curves in comparison to an untreated and a DMSO treated control; assay type: cell-based
Description: Example 24: Determination of the Inhibitory Effect of 1-S-PQS (5) and the Compound Represented by the Formula (14) Against Neisseria gonorrhoeae by Measuring Growth Curves in Comparison to an Untreated and a DMSO Treated Control
The inhibitory effect of 1-S-PQS (5) and the compound represented by the Formula (14) against Neisseria gonorrhoeae was determined by measuring growth curves in comparison to an untreated and a DMSO treated control (cf. FIGS. 17 to 19). […] The compound represented by the Formula (14) was effective against N. gonorrhoeae around 25-50 μM (cf. FIG. 19).

Moraxella catarrhalis = assay: as above; assay type: cell-based
Description: (§3) Example 22: Determination of the Inhibitory Effect of 1-S-PQS (5) Against Moraxella catarrhalis and Neisseria meningitidis by Measuring Growth Curves in Comparison to an Untreated and a DMSO Treated Control
(§4) The inhibitory effect of 1-S-PQS (5) against Moraxella catarrhalis and Neisseria meningitidis was determined by measuring growth curves in comparison to an untreated and a DMSO treated control (cf. FIGS. 11 to 14). […] M. catarrhalis is an important human pathogen responsible for otitis media in children and chronic obstructive pulmonary disease (COPD) in adults.
Example 23: Determination of the Inhibitory Effect of the Compound Represented by the Formula (14) Against Moraxella catarrhalis by Measuring Growth Curves in Comparison to an Untreated and a DMSO Treated Control
The inhibitory effect of the compound represented by the Formula (14) against Moraxella catarrhalis was determined by measuring growth curves in comparison to an untreated and a DMSO treated control (cf. FIGS. 15 and 16).

Neisseria meningitidis = assay: as above; assay type: cell-based
Description: as §3, §4

elastase (LasB) = elastase (LasB) (Pseudomonas aeruginosa, UniProt P14756); assay: In vitro elastase assay with fluorogenic substrate Abz-peptide-Nba; assay type: biochemical, P. aeruginosa
Description: Example 16: In Vitro Inhibition of Elastase (LasB) with Compounds 6, 7, and 12
An in-vitro elastase assay was performed according to Cathcart et al. (G. R. Cathcart, B. F. Gilmore, B. Greer, P. Harriott, B. Walker, Bioorganic & medicinal chemistry letters 2009, 19, 6230-6232). For a typical in vitro elastase assay 82 μL buffer (0.05 M TRIS HCl, 2.5 mM CaCl2, pH=7.2) and 5 μL of compound 6 solved in DMSO were added in a 96 well plate. 10 μL of 3 μg/mL elastase (solved in the same Tris/CaCl2 buffer) were added and mixed with the compound. After incubation for 10 min at room temperature, 3 μL fluorogenic substrate Abz-peptide-Nba (2-aminobenzoyl-Ala-Gly-Leu-Ala-4-nitrobenzylamide) in DMF were added and the fluorescence measured for 90 min in one minute steps (excitation at 330 nm, emission at 460 nm). The slope of the resulting graph was used to calculate the enzymatic activity.

S. aureus Mu50 (MRSA) [5] = details: cited from earlier work; for MIC of known antibiotics: comparison values
[6] = NCTC8325, read-out: Minimum inhibitory concentration (MIC)
[7] = S. aureus DSM18827 (also printed DSM11827), MRSA, LB medium
[8] = NCTC8325, S. aureus NCTC 8325, LB medium, read-out: Minimum inhibitory concentration (MIC)
[9] = S. aureus Mu50 (MRSA), LB medium
[10] = S. aureus USA 300 (MRSA), LB medium
[11] = 5 μM was the lowest concentration tested

Chain of elastase (LasB) (P14756 198-498): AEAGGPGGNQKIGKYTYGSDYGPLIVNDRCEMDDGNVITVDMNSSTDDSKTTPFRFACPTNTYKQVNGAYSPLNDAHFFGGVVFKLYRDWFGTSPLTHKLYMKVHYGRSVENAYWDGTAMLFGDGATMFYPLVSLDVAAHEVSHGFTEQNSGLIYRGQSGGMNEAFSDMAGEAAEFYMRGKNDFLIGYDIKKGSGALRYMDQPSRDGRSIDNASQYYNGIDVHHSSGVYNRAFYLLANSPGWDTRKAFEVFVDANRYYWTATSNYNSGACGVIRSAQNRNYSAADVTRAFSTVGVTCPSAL

CCCCCCCc1cc(=O)c2ccccc2[nH]1 [Compound 1, 2-heptyl-4-quinolone, reference compound]
MIC (S. aureus NCTC 8325; [6]): > 1000 µM and > 243 µg/mL
MIC (B. subtilis): > 1000 µM and > 243 µg/mL
MIC (E. coli K12): > 1000 µM and > 243 µg/mL

CCCCCCCc1cc(=O)c2ccccc2[te]1 [Compound 2, 2-heptyl-4H-tellurochromen-4-one]
MIC (B. subtilis): 100 µM to 250 µM and 36 µg/mL to 89 µg/mL

CCCCCCCc1c/c(=N/O)c2ccccc2[nH]1 [Compound 3, 2-heptylquinolin-4(1H)-one oxime]
MIC (Candida albicans): 100 µM and 25.8 µg/mL
MIC [1]: 60 µM and 15.5 µg/mL
MIC (S. aureus NCTC 8325; [6]): 60 µM and 15.5 µg/mL
MIC (B. subtilis): 50 µM and 12.9 µg/mL
MIC (E. coli K12): 300 µM and 78 µg/mL
MIC (S. aureus Mu50 (MRSA) [2]; MRSA): 60 µM and 15.5 µg/mL
Concentration at which cell toxicity starts [3]: 40 µM
Concentration at which general cytotoxicity starts [4]: above 10 μM
Concentration at which inhibition of neurite outgrowth starts [4]: above 2.5 μM
MIC (S. aureus USA 300 (MRSA)): 60 µM and 15.5 µg/mL

CCCCCCCc1[nH]c2ccccc2c(=O)c1O [Compound 4, 2-heptyl-3-hydroxy-4-quinolone, reference compound]
MIC (S. aureus NCTC 8325; [6]): > 1000 µM and > 259 µg/mL
MIC (B. subtilis): > 1000 µM and > 259 µg/mL
MIC (E. coli K12): > 1000 µM and > 259 µg/mL

CCCCCCCc1sc2ccccc2c(=O)c1O [Compound 5, 2-heptyl-3-hydroxy-4H-thiochromen-4-one]
MIC [1, 7]: 35 µM and 9.67 µg/mL
MIC (S. aureus NCTC 8325; [8]): 30 µM and 8.29 µg/mL
MIC (B. subtilis; B. subtilis, LB medium): 25 µM and 6.91 µg/mL
MIC (S. aureus Mu50 (MRSA) [2]; [9]): 25 µM and 6.91 µg/mL
Concentration at which growth was completely inhibited (Neisseria gonorrhoeae): 25 µM
Concentration at which general cytotoxicity starts [4]: above 40 μM
Concentration at which inhibition of neurite outgrowth starts [4]: above 40 μM
MIC (S. aureus USA 300 (MRSA); [10]): 30 µM and 8.29 µg/mL
Growth relative to DMSO control (Moraxella catarrhalis; 5 μM): 0.1
Concentration at which growth was completely inhibited (Moraxella catarrhalis; [11]): ≤ 5 µM
Growth relative to DMSO control (Moraxella catarrhalis; 10 μM): 0.0
Growth relative to DMSO control (Moraxella catarrhalis; 25 μM): 0.0
Growth relative to DMSO control (Moraxella catarrhalis; 50 μM): 0.0
Concentration at which growth was completely inhibited (Moraxella catarrhalis; lowest concentration tested (5 μM) expressed in μg/mL): ≤ 1.4 µg/mL
Concentration at which growth was completely inhibited (Neisseria meningitidis): 10 µM
Growth relative to DMSO control (Neisseria meningitidis; 5 μM): 0.4
Growth relative to DMSO control (Neisseria meningitidis; 10 μM): 0.0
Growth relative to DMSO control (Neisseria meningitidis; 25 μM): 0.0
Growth relative to DMSO control (Neisseria meningitidis; 50 μM): 0.0

CCCCCCCc1oc2ccccc2c(=S)c1O [Compound 7, 2-heptyl-3-hydroxy-4H-chromene-4-thione]
MIC [1, 7]: 72.5 µM and 20 µg/mL
MIC (S. aureus NCTC 8325; [8]): 60 µM and 16.6 µg/mL
MIC (S. aureus Mu50 (MRSA) [2]; [9]): 50 µM and 13.8 µg/mL
IC50 (elastase (LasB)): 2 µM
MIC (S. aureus USA 300 (MRSA); [10]): 60 µM and 16.6 µg/mL

CCCCCCCc1[nH]c2ccccc2/c(=N\O)c1O [Compound 8, 2-heptyl-3-hydroxyquinolin-4(1H)-one oxime]
MIC [1]: 150 µM and 41.1 µg/mL
MIC (S. aureus NCTC 8325; [6]): 200 µM and 54.9 µg/mL
MIC (S. aureus Mu50 (MRSA) [2]; MRSA): 100 µM and 27.4 µg/mL
MIC (S. aureus USA 300 (MRSA)): 100 µM and 27.4 µg/mL

Cc1sc2ccccc2c(=O)c1O [Compound 9, 3-hydroxy-2-methyl-thiochromen-4-one]
MIC [1]: > 1000 µM and > 192 µg/mL
MIC (S. aureus NCTC 8325; [6]): > 1000 µM and > 192 µg/mL
MIC (S. aureus Mu50 (MRSA) [2]; MRSA): > 1000 µM and > 192 µg/mL
MIC (S. aureus USA 300 (MRSA)): > 1000 µM and > 192 µg/mL

CCCCc1sc2ccccc2c(=O)c1O [Compound 10, 3-hydroxy-2-butyl-thiochromen-4-one]
MIC [1, 7]: 50 µM and 11.7 µg/mL
MIC (S. aureus NCTC 8325; [8]): 50 µM and 11.7 µg/mL
MIC (S. aureus Mu50 (MRSA) [2]; [9]): 50 µM and 11.7 µg/mL
Concentration at which general cytotoxicity starts [4]: 80 µM
Concentration at which inhibition of neurite outgrowth starts [4]: 40 µM
MIC (S. aureus USA 300 (MRSA); [10]): 50 µM and 11.7 µg/mL

CCCCCCCc1sc2ccc(F)cc2c(=O)c1O [Compound 11, 6-fluoro-2-heptyl-3-hydroxy-4H-thiochromen-4-one]
MIC [1, 7]: 40 µM and 11.8 µg/mL
MIC (S. aureus NCTC 8325; [8]): 35 µM and 10.3 µg/mL
MIC (S. aureus Mu50 (MRSA) [2]; [9]): 40 µM and 11.8 µg/mL
MIC (S. aureus USA 300 (MRSA); [10]): 35 µM and 10.3 µg/mL

CCCCCCCc1sc2ccccc2c(=S)c1O [Compound 12, 2-heptyl-3-hydroxy-4H-thiochromene-4-thione]
IC50 (elastase (LasB)): 2 µM

O=c1c(O)c(CCc2ccccc2)sc2ccccc12 [Formula (14)]
Concentration at which the compound was effective (Neisseria gonorrhoeae): 25 to 50 µM
MIC (S. aureus USA 300 (MRSA); [10]): 40 µM and 11.3 µg/mL
Concentration at which growth was completely inhibited (Moraxella catarrhalis; [11]): ≤ 5 µM

CCCCCCCCCCc1sc2ccccc2c(=O)c1O [Formula (16)]
MIC (S. aureus USA 300 (MRSA); [10]): > 100 µM and > 32 µg/mL

CC1(C)S[C@@H]2[C@H](NC(=O)[C@H](N)c3ccccc3)C(=O)N2[C@H]1C(=O)O [ampicillin]
MIC of known antibiotics (S. aureus Mu50 (MRSA) [5]): 37 mg/L

O=C(O)c1cn(C2CC2)c2cc(N3CCNCC3)c(F)cc2c1=O [ciprofloxacin]
MIC of known antibiotics (S. aureus Mu50 (MRSA) [5]): 66 mg/L

CC[C@H]1OC(=O)[C@H](C)[C@@H](O[C@H]2C[C@@](C)(OC)[C@@H](O)[C@H](C)O2)[C@H](C)[C@@H](O[C@@H]2O[C@H](C)C[C@H](N(C)C)[C@H]2O)[C@](C)(O)C[C@@H](C)C(=O)[C@H](C)[C@@H](O)[C@]1(C)O [erythromycin]
Concentration to inhibit growth (commercial antibiotics) (S. aureus Mu50 (MRSA) [5]; background section): > 1 mM
